Source: patent publication US10906884B2, “Benzodiazepine derivatives as CCK2/gastrin receptor antagonists” (Trio Medicines Ltd, priority 2014, dated 2021)

Legend:
CCK1 (human) = biological target: T1, CCK1 (human) (Homo sapiens, UniProt P32238); assay: CCK1 receptor functional assay (antagonist effect, cAMP, HTRF); format: cell-based; details: stimulus CCK-8s 300 nM, 10 min 37° C., CHO cells
T1 construct: expressed in transfected cells; host or cells: CHO cells
T1 sequence (P32238 1-428): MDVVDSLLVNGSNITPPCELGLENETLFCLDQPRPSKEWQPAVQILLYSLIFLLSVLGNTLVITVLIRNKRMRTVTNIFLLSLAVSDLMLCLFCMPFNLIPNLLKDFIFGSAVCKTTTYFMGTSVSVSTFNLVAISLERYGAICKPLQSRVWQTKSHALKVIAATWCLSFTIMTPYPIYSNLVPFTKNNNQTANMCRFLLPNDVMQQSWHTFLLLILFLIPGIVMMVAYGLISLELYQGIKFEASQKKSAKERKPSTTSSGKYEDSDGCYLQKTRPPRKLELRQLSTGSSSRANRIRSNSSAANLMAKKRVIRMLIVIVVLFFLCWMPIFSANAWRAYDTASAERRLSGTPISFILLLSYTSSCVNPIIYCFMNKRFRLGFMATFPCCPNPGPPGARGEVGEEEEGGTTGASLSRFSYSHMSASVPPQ
From the text: (§1) (TR2) and (TR3) were compared with YF476 and YM022 in CCK1 and CCK2 receptor functional assays with the following assay criteria.
(§2) The potency of the antagonists is expressed as IC50, the concentration of antagonist that causes a half-maximum inhibition of the control agonist response. The affinity of the antagonist for the receptor is expressed as KB, the concentration of antagonist, which would occupy 50% of the receptors at equilibrium.

panel of 80 receptors = assay: Receptor binding screen, radiolabelled ligands, scintillation counting; details: other than CCK2 and CCK1
Method: The potential of (TR2) and (TR3) to bind to other cellular and nuclear receptors was tested in a panel of 80 receptors. The assay used radiolabelled receptor ligands (agonist or antagonist, depending on the receptor), and the ability of the test compounds to inhibit ligand binding was measured by scintillation counting.

[1] = tested on: AGSGR cells (gastric adenocarcinoma cell line transfected with human gastrin/CCK2 receptor gene); assay: Sulphorhodamine-B (SRB) proliferation assay, G17-treated cells; format: cell-based; details: G17 10 nM
Method: The potency of (TR2) and (TR3) was tested in a sulphorhodamine-B (SRB) proliferation assay in a human gastric adenocarcinoma cell line stably transfected with the human gastrin/CCK2 receptor gene (AGSGR). SRB is a fluorescent dye that binds to proteins, so cells with a high rate of protein synthesis (proliferative cells) will show high levels of fluorescence in the SRB assay. […] (TR2) and (TR3) were compared with the positive controls YF476 and YM022.

[2] = tested on: pentagastrin-stimulated gastric acid secretion; assay: Pentagastrin-stimulated gastric acid secretion in conscious rats with a chronic gastric fistula; format: in vivo; details: Rattus norvegicus, sc, read-out: ED50, inhibition of pentagastrin-stimulated gastric acid secretion
Method: The effect of subcutaneous injections of YF476, (TR2) and (TR3) on pentagastrin-stimulated gastric acid secretion was tested in conscious rats with a chronic gastric fistula.

CCK2 (human) [3] = biological target: T2, CCK2 (human) (Homo sapiens, UniProt P32239); assay: CCK2 receptor functional assay (antagonist effect, cAMP, HTRF); format: cell-based; parameters: expressed in transfected cells; host or cells: CHO cells; details: for IC50 / Kb: stimulus CCK-8s 10 nM, 10 min 37° C., CHO cells; for IC50: read-out: CCK2 IC50; for Kb: read-out: CCK2 KB
T2 sequence (P32239 1-447): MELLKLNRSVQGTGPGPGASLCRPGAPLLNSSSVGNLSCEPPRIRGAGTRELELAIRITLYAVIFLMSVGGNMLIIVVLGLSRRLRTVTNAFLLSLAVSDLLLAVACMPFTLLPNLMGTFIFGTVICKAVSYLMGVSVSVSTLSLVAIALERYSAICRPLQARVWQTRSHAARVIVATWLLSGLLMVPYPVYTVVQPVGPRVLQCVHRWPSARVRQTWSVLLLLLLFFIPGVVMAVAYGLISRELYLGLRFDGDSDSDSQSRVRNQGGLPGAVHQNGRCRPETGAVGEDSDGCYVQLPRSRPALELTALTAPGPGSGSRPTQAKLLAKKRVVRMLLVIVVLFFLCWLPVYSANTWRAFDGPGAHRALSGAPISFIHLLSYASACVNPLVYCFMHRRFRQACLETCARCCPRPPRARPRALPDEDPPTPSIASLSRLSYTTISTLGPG
From the text: as §1, §2

CCK2 (human) [4] = biological target: T2, CCK2 (human); details: cited from earlier work
[5] = tested on: gastrin-stimulated acid secretion; details: oral, healthy men; cited from earlier work
panic attacks = details: patients; cited from earlier work
[6] = cited from earlier work
[7] = in vivo; cited from earlier work
[8] = Pharmacokinetics in healthy subjects, single oral dose, API in capsule; details: human, in vivo, po, 100 mg
Method: In an initial study, healthy volunteers took a single oral dose of 100 mg (TR2) as an active pharmaceutical ingredient (API) in a capsule. Plasma concentrations were measured.
In further clinical studies, healthy volunteers (n=8) took single oral doses of 5, 15, 50 and 100 mg (TR2) as an active pharmaceutical ingredient (API) in a capsule. (Capsule formulation TR2 powder (API) in a hard gelatin capsule, no excipients, no processing). Plasma concentrations were measured.
Healthy volunteers (n=8) took single oral doses of 5, 15, 25 and 50 mg (TR2-A) as API in a capsule (TR2-A (crystalline) in hard gelatin capsule with no excipient, no processing of the API). Plasma concentrations of (TR2) and (TR2-A) were measured. The area under the curve of plasma concentrations of (TR2) after a single oral dose of 50 mg of (TR2-A) API (AUC0-24 h=212.5) was about the same as that observed for a similar formulation of a single oral dose of (TR2) 100 mg (AUC0-24 h=241.5).

SMILES: CNc1cccc(NC(=O)N[C@H]2N=C(c3ccccn3)c3ccccc3N(CC(=O)C(C)(C)CO)C2=O)c1 [TR3]
- IC50 (CCK1 (human)): 8500 nM
- Binding to other cellular and nuclear receptors (inhibition of ligand binding) (panel of 80 receptors): No significant receptor binding
- Inhibition of the anti-proliferative effects of G17 ([1]; compound 500 nM): had the same effect
- ED50 [2]: 0.3 µmol/kg
- Selectivity IC50 (CCK1)/IC50 (CCK2) (CCK2 (human) [3]): 86
- Selectivity KB (CCK1)/KB (CCK2) (CCK2 (human) [3]): 108
- IC50 (CCK2 (human) [3]): 99 nM
- Kb (CCK2 (human) [3]): 12 nM

SMILES: Cc1cccc(NC(=O)N[C@@H]2N=C(c3ccccc3)c3ccccc3N(C)C2=O)c1 [L-365,260]
- Affinity at CCK2 receptors (CCK2 (human) [4]): nanomolar
- Selectivity versus the CCK1 receptor (CCK2 (human) [4]): 140 fold
- Inhibition of gastrin-stimulated acid secretion [5]: only modest and short lasting inhibition
- Limiting panic attacks (panic attacks): ineffective
- Aqueous solubility [6]: low
- Oral bioavailability [7]: poor

SMILES: CNc1cccc(NC(=O)N[C@@H]2N=C(c3ccccn3)c3ccccc3N(CC(=O)C(C)(C)CO)C2=O)c1 [TR2, (R)-1-[1-(4-Hydroxy-3,3-dimethyl-2-oxo-butyl)-2-oxo-5-pyridin-2-yl-2,3-dihydro-1H-benzo[e][1,4]diazepin-3-yl]-3-(3-methylamino-phenyl)-urea]
- IC50 (CCK1 (human)): 1000 nM
- Binding to other cellular and nuclear receptors (inhibition of ligand binding) (panel of 80 receptors): No significant receptor binding
- Inhibition of the anti-proliferative effects of G17 ([1]; compound 100 nM): completely inhibited
- ED50 [2]: 0.03 µmol/kg
- AUC [8]: 439 ng·h/mL
- AUC(0-t) [8]: 242 ng·h/mL
- Mean AUC0-24 h of plasma concentrations [8]: 241.5 ng·h/mL
- Selectivity IC50 (CCK1)/IC50 (CCK2) (CCK2 (human) [3]): 400
- Selectivity KB (CCK1)/KB (CCK2) (CCK2 (human) [3]): 484
- Affinity for the CCK2 receptor, fold lower than that of YF476 (CCK2 (human) [3]; relative to YF476): about 5 fold
- Selectivity for CCK2 over CCK1 receptor, higher than the selectivity of YF476 (CCK2 (human) [3]; relative to YF476): 30%
- Potency in CCK2 assay, fold less potent than YF476 and YM022 (CCK2 (human) [3]; relative to YF476 and YM022): about 5 fold
- Affinity for the CCK2 receptor relative to YM022 (CCK2 (human) [3]; relative to YM022): twice that of YM022
- IC50 (CCK2 (human) [3]): 2.5 nM
- Kb (CCK2 (human) [3]): 0.31 nM
